Data taken from ChEMBL document CHEMBL4346685, “Naphthyl quinoxaline thymidine conjugate is a potent anticancer agent post UVA activation and elicits marked inhibition of tumor growth through vaccination” (Eur J Med Chem, 2019).
Blank lines part the entries; values can stand above or below the compound they belong to. Calls of active or inactive are those of the source. No cut-off for these calls is given here.

Tests used:
H22 [1] = experiment: Induction of immunogenic cell death in mouse H22 cells assessed as increase in extracellular ATP level at 2 uM measured after 5 hrs by chemiluminescence-based assay; assay type: functional
MCF7 [2] = experiment: Cytotoxicity against human MCF7 cells assessed as reduction in cell viability preincubated for 5 hrs followed by compound washout and measured after 48 hrs by CCK8 assay; assay type: functional, cell-based
H22 [3] = experiment: Antitumor activity against mouse H22 cells allografted in immunocompetent Balb/c mouse assessed as decrease in lump formation at challenge site at 2 uM incubated with cells for 5 hrs followed by compound washout prior to vaccination and subsequent H22 cells addition 10 days post vaccination and measured over 30 days; assay type: functional, cell-based
[4] = Dark toxicity against mouse H22 cells assessed as reduction in cell viability preincubated for 5 hrs followed by compound washout and measured after 48 hrs by CCK8 assay; assay type: cell-based
A-375 [5] = experiment: Cytotoxicity against human A375 cells assessed as reduction in cell viability preincubated for 5 hrs followed by compound washout and measured after 48 hrs by CCK8 assay; assay type: functional, cell-based
H22 [6] = experiment: Induction of immunogenic cell death in mouse H22 cells assessed as increase in intracellular calreticulin level at 2 uM measured after 5 hrs by flow cytometric analysis; assay type: functional, cell-based
H22 [7] = experiment: Antitumor activity against mouse H22 cells allografted in immunocompetent Balb/c mouse assessed as decrease in lump formation in vaccination site at 2 uM incubated with cells for 5 hrs prior to 20 mins 2 mW/cm2 UVA irradiation post compound washout followed by vaccination and measured over 30 days; assay type: functional, cell-based
H22 [8] = experiment: Induction of immunogenic cell death in mouse H22 cells assessed as increase in calreticulin level in cell surface at 2 uM incubated for 5 hrs by Hoechst staining based fluorescence microscopic analysis; assay type: functional
H22 [9] = experiment: Antitumor activity against mouse H22 cells allografted in immunocompetent Balb/c mouse assessed as inhibition of tumour formation at 2 uM incubated with cells for 5 hrs prior to 20 mins 2 mW/cm2 UVA irradiation post compound washout followed by vaccination and measured within 5 days; assay type: functional, cell-based
Bel-7402 [10] = experiment: Cytotoxicity against human Bel7402 cells assessed as reduction in cell viability preincubated for 5 hrs followed by compound washout and measured after 48 hrs by CCK8 assay; assay type: functional, cell-based
H22 [11] = experiment: Induction of immunogenic cell death in mouse H22 cells assessed as increase in extracellular HMGB1 level at 2 uM incubated for 5 hrs by ELISA; assay type: functional, cell-based
H22 [12] = experiment: Induction of immunogenic cell death in mouse H22 cells assessed as extracellular ATP level at 2 uM measured after 24 hrs by chemiluminescence-based assay; assay type: functional
H22 [13] = experiment: Dark toxicity against mouse H22 cells up to 500 nM preincubated for 5 hrs followed by compound washout and measured after 48 hrs by CCK8 assay; assay type: cell-based; conditions: h22, 48 h
A-375 [14] = experiment: Antiproliferative activity against human A375 cells assessed as reduction in cell viability preincubated for 5 hrs followed by compound washout and subsequent 3 mW/cm2 UVA irradiation measured 48 hrs post irradiation by CCK8 assay; assay type: functional, cell-based; conditions: A-375, light or radiation study
Bel-7402 [15] = experiment: Antiproliferative activity against human Bel7402 cells assessed as reduction in cell viability preincubated for 5 hrs followed by compound washout and subsequent 3 mW/cm2 UVA irradiation for 20 mins measured 48 hrs post irradiation by CCK8 assay; assay type: functional, cell-based; conditions: Bel-7402, light or radiation study
H22 [16] = experiment: Induction of immunogenic cell death in mouse H22 cells assessed as extracellular ATP level at 250 nM preincubated for 5 hrs followed by compound washout and subsequent 2 mW/cm2 UVA irradiation for 20 mins measured 2 hrs post irradiation by chemiluminescence-based assay; assay type: functional
MCF7 [17] = experiment: Induction of reactive oxygen species generation in human MCF7 cells up to 200 nM preincubated for 5 hrs followed by compound washout and subsequent 3 mW/cm2 UVA irradiation measured 10 mins post irradiation by DCFH-DA probe based fluorescence microscopic analysis; assay type: functional, cell-based
Bel-7402 [18] = experiment: Dark toxicity against human Bel7402 cells up to 500 nM incubated for 5 hrs followed by compound washout and measured after 48 hrs by CCK8 assay; assay type: cell-based; conditions: bel-7402, 5 h
A-375 [19] = experiment: Dark toxicity against human A375 cells up to 500 nM preincubated for 5 hrs followed by compound washout and measured after 48 hrs by CCK8 assay; assay type: cell-based; conditions: a-375, 48 h
H22 [20] = experiment: Induction of immunogenic cell death in mouse H22 cells assessed as extracellular HMGB1 level at 120 to 250 nM preincubated for 5 hrs followed by compound washout and subsequent 2 mW/cm2 UVA irradiation measured 2 hrs post irradiation by ELISA; assay type: functional
H22 [21] = experiment: Antitumor activity against mouse H22 cells allografted in immunocompetent Balb/c mouse assessed as decrease in lump formation at vaccination site at 250 nM incubated with cells for 5 hrs prior to 20 mins 2 mW/cm2 UVA irradiation post compound washout followed by vaccination and measured over 30 days; assay type: functional, cell-based
H22 [22] = experiment: Antitumor activity against mouse H22 cells allografted in immunocompetent Balb/c mouse assessed as decrease in tumour formation at challenge site at 250 nM incubated with cells for 5 hrs followed by compound washout before 2 mW/cm2 UVA irradiation for 20 mins and followed by vaccination and subsequent H22 cells addition 10 days post vaccination and measured on day 25; assay type: functional, cell-based
MCF7 [23] = experiment: Dark toxicity against human MCF7 cells up to 500 nM preincubated for 5 hrs followed by compound washout and measured after 48 hrs by CCK8 assay; assay type: cell-based; conditions: mcf7, 48 h
H22 [24] = experiment: Dark toxicity in mouse H22 cells assessed as increase in extracellular HMGB1 level at 120 to 250 nM incubated for 5 hrs by ELISA; assay type: cell-based; conditions: h22, 5 h, 0.25 µM
H22 [25] = experiment: Antitumor activity against mouse H22 cells allografted in immunocompetent Balb/c mouse assessed as inhibition of tumour formation at 250 nM incubated with cells for 5 hrs prior to 20 mins 2 mW/cm2 UVA irradiation post compound washout followed by vaccination and measured within 5 days; assay type: functional, cell-based
H22 [26] = experiment: Antitumor activity against mouse H22 cells allografted in immunocompetent Balb/c mouse assessed as inhibition of tumour formation at 60 nM incubated with cells for 5 hrs prior to 20 mins 2 mW/cm2 UVA irradiation post compound washout followed by vaccination and measured over 10 days; assay type: functional, cell-based
H22 [27] = experiment: Induction of immunogenic cell death in mouse H22 cells assessed as increase in intracellular calreticulin level at 60 to 250 nM preincubated for 5 hrs followed by compound washout and subsequent 2 mW/cm2 UVA irradiation measured 2 hrs post irradiation by Hoechst staining based fluorescence microscopic analysis; assay type: functional
H22 [28] = experiment: Induction of immunogenic cell death in mouse H22 cells assessed as increase in intracellular calreticulin level at 60 to 250 nM preincubated for 5 hrs followed by compound washout and subsequent 2 mW/cm2 UVA irradiation for 20 mins measured 2 hrs post irradiation by flow cytometric analysis; assay type: functional, cell-based
MCF7 [29] = experiment: Antiproliferative activity against human MCF7 cells assessed as reduction in cell viability preincubated for 5 hrs followed by compound washout and subsequent 3 mW/cm2 UVA irradiation measured 48 hrs post irradiation by CCK8 assay; assay type: functional, cell-based; conditions: MCF7, light or radiation study
[30] = Toxicity in immunocompetent BALB/c mouse allografted with mouse H22 cells assessed as change in body weight at 250 nM incubated with cells for 5 hrs followed by compound washout before 2 mW/cm2 UVA irradiation for 20 mins and followed by vaccination and subsequent H22 cells addition 10 days post vaccination and measured over 30 days; conditions: 0.25 µM
H22 [31] = experiment: Antiproliferative activity against mouse H22 cells assessed as reduction in cell viability preincubated for 5 hrs followed by compound washout and subsequent 2 mW/cm2 UVA irradiation measured 48 hrs post irradiation by CCK8 assay; assay type: functional, cell-based; conditions: H22, light or radiation study
H22 [32] = experiment: Antitumor activity against mouse H22 cells allografted in immunocompetent Balb/c mouse assessed as decrease in tumour formation at challenge site at 250 nM incubated with cells for 5 hrs followed by compound washout before 2 mW/cm2 UVA irradiation for 20 mins and followed by vaccination and subsequent H22 cells addition 10 days post vaccination and measured after 2 weeks; assay type: functional, cell-based
H22 [33] = experiment: Induction of immunogenic cell death in mouse H22 cells assessed as […] in extracellular ATP level at 250 nM incubated for 5 hrs followed by compound washout and subsequent 2 mW/cm2 UVA irradiation measured 5 hrs post irradiation by chemiluminescence-based assay; assay type: functional
H22 [34] = experiment: Antitumor activity against mouse H22 cells allografted in immunocompetent Balb/c mouse assessed as decrease in tumour formation at challenge site at 250 nM incubated with cells for 5 hrs followed by compound washout before 2 mW/cm2 UVA irradiation for 20 mins and followed by vaccination and subsequent H22 cells addition 10 days post vaccination and measured after 2 months; assay type: functional, cell-based
H22 [35] = experiment: Dark toxicity in mouse H22 cells assessed as increase in intracellular calreticulin level at 60 to 250 nM measured after 5 hrs by flow cytometric analysis; assay type: cell-based; conditions: h22, 5 h, 0.25 µM
H22 [36] = experiment: Antitumor activity against mouse H22 cells allografted in immunocompetent Balb/c mouse assessed as inhibition of tumour formation at 60 nM incubated with cells for 5 hrs prior to 20 mins 2 mW/cm2 UVA irradiation post compound washout followed by vaccination and measured over 20 days; assay type: functional, cell-based

SMILES: O=C1c2c(O)ccc(O)c2C(=O)c2c(NCCNCCO)ccc(NCCNCCO)c21 [MITOXANTRONE]
- Activity (H22 [1]): inactive
- IC50 (MCF7 [2]): 380 nM
- inhibition (H22 [3]): inactive
- IC50 at 5 h [4]: 187 nM
- IC50 (A-375 [5]): 112 nM
- Activity (H22 [6]): Active
- Activity (H22 [7]): Active
- Activity (H22 [8]): Active
- inhibition (H22 [9]): Active
- IC50 (Bel-7402 [10]): 117 nM
- IC90 (Bel-7402 [10]): 1300 nM
- Activity (H22 [11]): inactive
- Activity (H22 [12]): 9 nM

SMILES: Cc1cn([C@H]2C[C@H](n3cc(CNC(=O)CCCCCOc4ccc5c(c4)-c4nc6cc7ccccc7cc6nc4[C@H]4C(C)(C)CCC[C@]54C)nn3)[C@@H](CO)O2)c(=O)[nH]c1=O
- Activity (H22 [13]): Non-Toxic
- IC50 (A-375 [14]): 25.3 nM
- IC50 (Bel-7402 [15]): 26.6 nM
- Activity (H22 [16]): 335 nM
- Activity (MCF7 [17]): Active
- Activity (Bel-7402 [18]): Non-Toxic
- Activity (A-375 [19]): Non-Toxic
- Activity (H22 [20]): 3 ng/mL
- Activity (H22 [21]): Active
- inhibition (H22 [22]): Active
- Activity (MCF7 [23]): Non-Toxic
- Activity (H22 [24]): Non-Toxic
- inhibition (H22 [25]): Active
- inhibition (H22 [26]): inactive
- Activity (H22 [27]): Active
- Activity (H22 [28]): Active
- IC50 (MCF7 [29]): 23.5 nM
- Activity [30]: Non-Toxic
- IC50 (H22 [31]): 28.8 nM
- inhibition (H22 [32]): Active
- Activity (H22 [33]): Active
- inhibition (H22 [34]): Active
- Activity (H22 [35]): Non-Toxic
- inhibition (H22 [36]): inactive

SMILES: C=CC1=C(C)c2cc3[nH]c(cc4nc(cc5[nH]c(cc1n2)c(C)c5CCC(=O)O)C(CCC(=O)O)=C4C)c(C)c3C=C [PROTOPORPHYRIN]
- IC50 (Bel-7402 [15]): 310 nM

Second part, led by results:

- IC50 (A-375 [14]): 44 nM
- IC50 (Bel-7402 [15]): 44.3 nM
- IC50 (MCF7 [29]): 49.6 nM
SMILES: Cc1cn([C@H]2C[C@H](n3cc(CNC(=O)CCCCCOc4ccc5c(c4)-c4nc6cc7ccccc7cc6nc4[C@@H]4C(C)(C)CCC[C@]54C)nn3)[C@@H](CO)O2)c(=O)[nH]c1=O
- Activity (H22 [13]): Non-Toxic
- Activity (Bel-7402 [18]): Non-Toxic
- Activity (A-375 [19]): Non-Toxic
- Activity (MCF7 [23]): Non-Toxic
- IC50 (H22 [31]): 32 nM

- IC50 (Bel-7402 [15]): 251 nM
SMILES: Cc1cn([C@H]2C[C@H](n3cc(CNC(=O)CCCCCOc4ccc5c(c4)-c4nc6ccccc6nc4[C@@H]4C(C)(C)CCC[C@]54C)nn3)[C@@H](CO)O2)c(=O)[nH]c1=O
